For 32 compounds, IC50 results are on record in patent US20120264735A1 (priority 2009, published 2012).

pIC50: −log10 of the molar value. Bounds are passed on as bounds.

This test deals with T1, c-Met kinase (recombinant c-Met) (Homo sapiens, UniProt P08581).
T1 construct: 0.27 nM recombinant c-Met
T1 sequence (P08581 25-1390): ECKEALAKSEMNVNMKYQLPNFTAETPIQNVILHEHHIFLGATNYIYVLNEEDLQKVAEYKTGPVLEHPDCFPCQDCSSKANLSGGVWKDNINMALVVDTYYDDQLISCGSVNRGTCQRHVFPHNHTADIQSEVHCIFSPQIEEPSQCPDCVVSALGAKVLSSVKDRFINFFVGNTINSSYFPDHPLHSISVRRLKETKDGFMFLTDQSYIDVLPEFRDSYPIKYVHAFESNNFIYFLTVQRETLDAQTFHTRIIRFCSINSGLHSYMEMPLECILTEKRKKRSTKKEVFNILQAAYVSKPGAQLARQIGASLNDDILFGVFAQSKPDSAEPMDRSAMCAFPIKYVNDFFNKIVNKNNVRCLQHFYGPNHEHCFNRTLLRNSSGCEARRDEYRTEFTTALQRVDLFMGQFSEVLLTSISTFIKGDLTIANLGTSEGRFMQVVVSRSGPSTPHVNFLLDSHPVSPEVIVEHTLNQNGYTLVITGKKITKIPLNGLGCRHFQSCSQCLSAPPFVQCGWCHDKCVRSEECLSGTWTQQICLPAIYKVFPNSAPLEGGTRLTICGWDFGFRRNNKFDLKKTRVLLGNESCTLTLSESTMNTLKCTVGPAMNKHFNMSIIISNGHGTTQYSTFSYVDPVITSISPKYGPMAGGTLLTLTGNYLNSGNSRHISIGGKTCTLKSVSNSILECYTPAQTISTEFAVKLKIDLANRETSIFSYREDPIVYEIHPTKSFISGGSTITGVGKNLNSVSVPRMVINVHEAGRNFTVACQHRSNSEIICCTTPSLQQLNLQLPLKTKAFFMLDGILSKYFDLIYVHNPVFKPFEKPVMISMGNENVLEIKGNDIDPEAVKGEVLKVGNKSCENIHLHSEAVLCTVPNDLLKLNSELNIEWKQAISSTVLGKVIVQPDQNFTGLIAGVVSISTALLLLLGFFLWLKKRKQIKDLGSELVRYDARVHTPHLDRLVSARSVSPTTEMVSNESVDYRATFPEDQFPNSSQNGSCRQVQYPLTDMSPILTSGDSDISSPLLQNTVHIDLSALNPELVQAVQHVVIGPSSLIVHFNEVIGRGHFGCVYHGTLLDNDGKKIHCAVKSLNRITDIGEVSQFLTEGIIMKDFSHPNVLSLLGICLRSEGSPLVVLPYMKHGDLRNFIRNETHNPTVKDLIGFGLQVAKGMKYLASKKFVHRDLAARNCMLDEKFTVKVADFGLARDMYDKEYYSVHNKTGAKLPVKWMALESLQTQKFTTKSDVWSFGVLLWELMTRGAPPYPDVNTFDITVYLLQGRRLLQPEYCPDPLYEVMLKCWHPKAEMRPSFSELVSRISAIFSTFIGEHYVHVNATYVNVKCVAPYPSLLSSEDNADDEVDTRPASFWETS
Description: In vitro kinase assay I (homogeneous time-resolved fluorescence tyrosine kinase assay). The class given is biochemical. A digest of the protocol: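 Biotinylated peptide (0.5 μM) phosphorylated by 0.2 nM recombinant c-Met with 50 μM MgATP, 60 min at room temperature, pH 7.4, 5% DMSO. EDTA stop; HTRF read with Eu-anti-phosphotyrosine antibody and streptavidin-APC. IC50 from 4-parameter logistic fit.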
What is called pIC50 is the IC50 on a negative log10 scale, so that one unit is a factor of ten. Regarding `CC(c1cccc(-c2nccc(C(F)F)n2)c1)c1nn(-c2cnn(C)c2)ccc1=O` (single isomer, unassigned) [Example 690, 3-[(1R or S)-1-{3-[4-(Difluoromethyl)pyrimidin-2-yl]phenyl}ethyl]-1-(1-methyl-1H-pyrazol-4-yl)pyridazin-4(1H)-one], the pIC50 is above 7.00.
In the case of `CCCOC(=O)Nc1cccc(Cc2nn(-c3cnn(C(C)C)c3)ccc2=O)c1` [Example 104, propyl [3-({1-[1-(1-methylethyl)-1H-pyrazol-4-yl]-4-oxo-1,4-dihydropyridazin-3-yl}methyl)phenyl]carbamate] it was above 7.00; in that of `CCOc1cnc(-c2cccc(C(CC)c3nn(-c4cnn(C)c4)ccc3=O)c2)nc1` (single isomer, unassigned) [Example 206, 3-{(1R or S)-1-[3-(5-ethoxypyrimidin-2-yl)phenyl]propyl}-1-(1-methyl-1H-pyrazol-4-yl)pyridazin-4(1H)-one], above 7.00; in that of `CCOCCOc1cnc(-c2cccc(Cc3nn(-c4ccc(F)c(F)c4)ccc3=O)c2)nc1` [Example 321, 1-(3,4-difluorophenyl)-3-{3-[5-(2-ethoxyethoxy)pyrimidin-2-yl]benzyl}pyridazin-4(1H)-one], above 7.00.
On to `CC(C)CNC(=O)c1cnc(-c2cccc(Cc3nn(-c4cnn(C)c4)ccc3=O)c2)nc1` [Example 480, N-(2-methylpropyl)-2-(3-{[1-(1-methyl-1H-pyrazol-4-yl)-4-oxo-1,4-dihydro-pyridazin-3-yl]methyl}phenyl)pyrimidine-5-carboxamide], for which the negative-log IC50 (pIC50) was above 7.00.
In the case of `C/C=C/c1cnc(-c2cccc(Cc3nn(-c4cnn(C)c4)ccc3=O)c2)nc1` [Example 400, 1-(1-methyl-1H-pyrazol-4-yl)-3-(3-{5-[(1E)-prop-1-en-1-yl]pyrimidin-2-yl}benzyl)pyridazin-4(1H)-one] it was above 7.00; in that of `CCCOC(=O)Nc1cccc(Cc2nn(-c3cc(F)c(F)c(F)c3)ccc2=O)c1` [Example 8, propyl (3-{[4-oxo-1-(3,4,5-trifluorophenyl)-1,4-dihydropyridazin-3-yl]methyl}phenyl)carbamate], above 7.00; in that of `CCc1cnc(-c2cccc(Cc3nn(-c4cnn(C)c4)ccc3=O)c2)nc1` [Example 391, 3-[3-(5-Ethylpyrimidin-2-yl)benzyl]-1-(1-methyl-1H-pyrazol-4-yl)pyridazin-4(1H)-one], above 7.00.
For the compound `N#Cc1cc(F)cc(-n2ccc(=O)c(Cc3cccc(NC(=O)OCC4CCOC4)c3)n2)c1` (racemic) [Example 131, rac-tetrahydrofuran-3-ylmethyl (3-{[1-(3-cyano-5-fluorophenyl)-4-oxo-1,4-dihydropyridazin-3-yl]methyl}phenyl)carbamate], the negative logarithm of the IC50 (pIC50) is above 7.00.
Take `O=c1ccn(-c2cc(F)cc(F)c2)nc1Cc1cccc(-c2ncc(OCC3CCOCC3)cn2)c1` [Example 331, 1-(3,5-difluorophenyl)-3-{3-[5-(tetrahydro-2H-pyran-4-ylmethoxy)pyrimidin-2-yl]benzyl}pyridazin-4(1H)-one]: the pIC50 was above 7.00.
As for `COCCOC(=O)Nc1cccc(C(C)c2nn(-c3cnn(C)c3)ccc2=O)c1` (single isomer, unassigned) [Example 652, 2-methoxyethyl (3-{(1S or R)-1-[1-(1-methyl-1H-pyrazol-4-yl)-4-oxo-1,4-dihydropyridazin-3-yl]ethyl}phenyl)carbamate], the pIC50 is above 7.00.
Take `CC(c1cccc(-c2ncc(OC3COC3)cn2)c1)c1nn(-c2cnn(C)c2)ccc1=O` (single isomer, unassigned) [Example 215, 1-(1-methyl-1H-pyrazol-4-yl)-3-((1S or R)-1-{3-[5-(oxetan-3-yloxy)pyrimidin-2-yl]phenyl}ethyl)pyridazin-4(1H)-one]: the pIC50 is 6.00 to 7.00.
Turning to `CC(C)c1cnc(-c2cccc(Cc3nn(-c4cnn(C)c4)ccc3=O)c2)nc1` [Example 436, 1-(1-Methyl-1H-pyrazol-4-yl)-3-{3-[5-(propan-2-yl)pyrimidin-2-yl]benzyl}pyridazin-4(1H)-one], the pIC50 was above 7.00.
Consider `O=C(Nc1cccc(Cc2nn(-c3cc(F)cc(F)c3)ccc2=O)c1)OCC1CCCOC1` (racemic) [Example 607, rac-tetrahydro-2H-pyran-3-ylmethyl (3-{[1-(3,5-difluorophenyl)-4-oxo-1,4-dihydropyridazin-3-yl]methyl}phenyl)carbamate], for which the negative logarithm of the IC50 (pIC50) is above 7.00.
Take `CCn1cnc(-c2cccc(C(C)c3nn(-c4cnn(C)c4)ccc3=O)c2)n1` (single isomer, unassigned) [Example 681, 3-{(1R or S)-1-[3-(1-ethyl-1H-1,2,4-triazol-3-yl)phenyl]ethyl}-1-(1-methyl-1H-pyrazol-4-yl)pyridazin-4(1H)-one]: the pIC50 was above 7.00.
With `O=c1ccn(-c2cc(F)cc(F)c2)nc1Cc1cccc(-c2ncc(OCc3ccccc3)cn2)c1` [Example 125, 3-{3-[5-(benzyloxy)pyrimidin-2-yl]benzyl}-1-(3,5-difluorophenyl)pyridazin-4(1H)-one], the pIC50 was above 7.00.
`CN1CCN(CCCOC(=O)Nc2cccc(Cc3nn(-c4cnn(C)c4)ccc3=O)c2)CC1` [Example 536, 3-(4-methylpiperazin-1-yl)propyl-(3-{[1-(1-methyl-1H-pyrazol-4-yl)-4-oxo-1,4-dihydropyridazin-3-yl]methyl}phenyl)carbamate]: the pIC50 was above 7.00.
For `CCOC(=O)Nc1cccc(Cc2nn(-c3cnn(C(C)C)c3)ccc2=O)c1` [Example 103, ethyl [3-({1-[1-(1-methylethyl)-1H-pyrazol-4-yl]-4-oxo-1,4-dihydropyridazin-3-yl}methyl)phenyl]carbamate], the negative logarithm of the IC50 (pIC50) is above 7.00.
`Cn1cc(-n2ccc(=O)c(Cc3cccc(NC(=O)OCCN4CCNCC4)c3)n2)cn1` [Example 625, 2-piperazin-1-ylethyl (3-{[1-(1-methyl-1H-pyrazol-4-yl)-4-oxo-1,4-dihydropyridazin-3-yl]methyl}phenyl)carbmate]: the pIC50 is above 7.00.
`CCn1cc(-n2ccc(=O)c(C(C)c3cccc(-c4ncc(OC)cn4)c3)n2)cn1` (single isomer, unassigned) [Example 333, 1-(1-ethyl-1H-pyrazol-4-yl)-3-{(1R or S)-1-[3-(5-methoxypyrimidin-2-yl)phenyl]ethyl}pyridazin-4(1H)-one]: the pIC50 was above 7.00.
In the case of `CC(C)COC(=O)Nc1cccc(Cc2nn(-c3cnn(CCC(=O)N4CCOCC4)c3)ccc2=O)c1` [Example 703, 2-methylpropyl [3-({1-[1-(3-morpholin-4-yl-3-oxopropyl-1H-pyrazol-4-yl]-4-oxo-1,4-dihydropyridazin-3-yl}methyl)phenyl] carbamate] it was above 7.00; in that of `CCOc1cnc(-c2cccc(Cc3nn(-c4cccc(C(=O)N(C)C)c4)ccc3=O)c2)nc1` [Example 726, 3-{3-[3-(5-Ethoxypyrimidin-2-yl)benzyl]-4-oxopyridazin-1(4H)-yl}-N,N-dimethylbenzamide], 6.00 to 7.00.
Turning to `CCCOC(=O)Nc1cccc(Cc2nn(-c3cnn(C)c3)ccc2=O)c1` [Example 52, propyl (3-{[1-(1-methyl-1H-pyrazol-4-yl)-4-oxo-1,4-dihydropyridazin-3-yl]methyl}phenyl)carbamate], the negative-log IC50 (pIC50) is above 7.00.
On to `CC(c1cccc(-c2ncc(OC3COC3)cn2)c1)c1nn(-c2cnn(C)c2)ccc1=O` (single isomer, unassigned) [Example 216, 1-(1-methyl-1H-pyrazol-4-yl)-3-((1R or S)-1-{3-[5-(oxetan-3-yloxy)pyrimidin-2-yl]phenyl}ethyl)pyridazin-4(1H)-one], for which the pIC50 was above 7.00.
As for `CC(c1cccc(-c2ncc(O[C@@H]3CCNC[C@H]3F)cn2)c1)c1nn(-c2cnn(C)c2)ccc1=O` (single isomer, unassigned) [Example 342, 3-{(1R or S)-1-[3-(5-{[(3R or S, 4R or S)-3-fluoropiperidin-4-yl]oxy}pyrimidin-2-yl)phenyl]ethyl}-1-(1-methyl-1H-pyrazol-4-yl)pyridazin-4(1H)-one], the negative-log IC50 (pIC50) was above 7.00.
With `CC(c1cccc(-c2ncc(O[C@H]3CCNC[C@H]3F)cn2)c1)c1nn(-c2cnn(C)c2)ccc1=O` (some centres unmarked) [Example 344], the pIC50 was above 7.00.
With `CC(c1cccc(-c2ncc(N3CCOCC3)cn2)c1)c1nn(-c2cnn(C)c2)ccc1=O` (single isomer, unassigned) [Example 244, 1-(1-methyl-1H-pyrazol-4-yl)-3-{(1R or S)-1-[3-(5-morpholin-4-ylpyrimidin-2-yl)phenyl]ethyl}pyridazin-4(1H)-one], the pIC50 is 6.00 to 7.00.
With `COCCOc1cnc(-c2cccc(Cc3nn(-c4cnn(C)c4F)cc(F)c3=O)c2)nc1` [Example 751, 5-Fluoro-1-(5-fluoro-1-methyl-1H-pyrazol-4-yl)-3-{3-[5-(2-methoxyethoxy)pyrimidin-2-yl]benzyl}pyridazin-4(1h)-one], the pIC50 is above 7.00.
For `CCn1cc(-n2ccc(=O)c(Cc3cccc(NC(=O)OCCOC)c3)n2)cn1` [Example 70, 2-methoxyethyl (3-{[1-(1-ethyl-1H-pyrazol-4-yl)-4-oxo-1,4-dihydropyridazin-3-yl]methyl}phenyl)carbamate] the value was above 7.00; for `CC(c1cccc(-c2ncc(F)c(C3CC3)n2)c1)c1nn(-c2cnn(C)c2)ccc1=O` (single isomer, unassigned) [Example 692, 3-{(1R or S)-1-[3-(4-cyclopropyl-5-fluoropyrimidin-2-yl)phenyl]ethyl}-1-(1-methyl-1H-pyrazol-4-yl)pyridazin-4(1H)-one], above 7.00; for `Cn1cc(-n2ccc(=O)c(Cc3cccc(NC(=O)OCCn4cncn4)c3)n2)cn1` [Example 534, 2-(1H-1,2,4-triazol-1-yl)ethyl (3-{[1-(1-methyl-1H-pyrazol-4-yl)-4-oxo-1,4-dihydropyridazin-3-yl]methyl}phenyl)carbamate], above 7.00.
In the case of `N#Cc1cccc(-n2ccc(=O)c(Cc3cccc(NC(=O)OCCN4CCCC4=O)c3)n2)c1` [Example 582, 2-(2-oxopyrrolidin-1-yl)ethyl (3-{[1-(3-cyanophenyl)-4-oxo-1,4-dihydropyridazin-3-yl]methyl}phenyl)carbamate] it was above 7.00.
